Structures can show the parent of a compound that is named as a salt.
Key:
[1] = Thermal stability: half-life by 1H NMR in methanol-d4 heated at 60° C. (Test Examples 1-2, 2-2); type: physicochemical; conditions: for half-life at 60° C.: 1 mg in methanol-d4 (0.35 ml), 1H NMR at intervals of 2 to 3 hours; for thermal stability compared with AMPPD: methanol-d4, 60° C., versus AMPPD
Protocol: 1 mg of 3-isopropoxy-4,4-diisopropyl-3-(3'-phosphoryloxy)phenyl-1,2-dioxetane disodium salt (Compound [40]) synthesized in Example 26 was dissolved in methanol-d4 (0.35 ml), and the solution was heated at 60° C. in a thermostated bath, so that the solution was subjected to ^1 HNMR measurement at intervals of 2 to 3 hours.
In the above ^1 HNMR measurement, Compound [40] was replaced by the commercially available AMPPD (3-(2'-spiroadamantan)-4-methoxy-4-(3"-phosphoryloxy)phenyl-1,2-dioxetane disodium salt), whereby the half-life of AMPPD at 60° C. was also calculated in the same manner as mentioned above.
1 mg of 3-t-butyl-4-methoxy-3-neopentyloxymethyl-4-(3'-phosphoryloxy)phenyl-1,2-dioxetane disodium salt (Compound [86]) synthesized in Example 66 was dissolved in methanol-d4 (0.35 ml), and the solution was heated at 60° C. in a thermostated bath, so that the solution was subjected to ^1 HNMR measurement at intervals of 2 to 3 hours.

[2] = tested on: alkaline phosphatase; assay: Chemiluminescence with alkaline phosphatase, Test Example 1-1 (FIG. 1); type: biochemical; conditions: 0.2 mg/ml, 0.1M diethanolamine/HCl buffer pH 10.0, 37° C.; versus AMPPD
Protocol: 3-isopropoxy-4,4-diisopropyl-3-(3'-phosphoryloxy)phenyl-1,2-dioxetane disodium salt (Compound [40]) synthesized in Example 26 was dissolved in a 0.1M diethanolamine/hydrochloric acid buffer solution (pH 10.0) containing 1 mM magnesium chloride and 0.05% sodium azide, in such an amount that the concentration of the dissolved Compound [40]) was 0.2 mg/ml, and the solution was stirred.
(§1) 300 μl of this solution was placed in a cartridge for assay and incubated for 90 minutes.
(§2) After this incubation, 20 μl of an enzyme solution was added to the above solution, which enzyme solution was prepared by diluting an alkaline phosphatase solution for enzyme immunoassay (made by Boehringer Mannheim Co., Ltd.) (3 mg/0.3 ml) 154 times and then 10^5 times with a 50 mM Tris/cl buffer solution (pH 7.2) containing 0.15M sodium chloride, 1 mM magnesium chloride, 0.1 mM zinc chloride and 0.1% sodium azide.
(§3) The luminescence of the above diluted enzyme solution was measured at 37° C. at regular time intervals.
(§4) For comparison, the luminescence of a commercially available AMPPD (3-(2'-spiroadamantan)-4-methoxy-4-(3"-phosphoryloxy)phenyl-1,2-dioxetane disodium salt was measured under the same conditions as mentioned above, by replacing the Compound [40] with AMPPD in accordance with the above-mentioned procedure.

[3] = tested on: alkaline phosphatase; assay: Chemiluminescence with alkaline phosphatase in presence of quaternary ammonium salt (BDMG), Test Example 2-1 (FIG. 2); type: biochemical; conditions: 0.2 mg/ml, 0.1M diethanolamine/HCl buffer pH 10.0 with 0.4 mg/ml BDMG, 37° C.; versus AMPPD
Protocol: 3-t-butyl-4-methoxy-3-neopentyloxymethyl-4-(3'-phosphoryloxy)phenyl-1,2-dioxetane disodium salt (Compound [86]) synthesized in Example 66 was dissolved in a 0.1M diethanolamine/hydrochloric acid buffer solution (pH 10.0 ) containing 0.4 mg/ml of quaternary ammonium salt (BDMG), 1 mM magnesium chloride and 0.05% sodium azide, in such an amount that the concentration of the dissolved Compound [86] was 0.2 mg/ml, and the solution was stirred.
as §1
as §2, with “times” for “times and then 10^5 times”
as §3
as §4, with “salt)” for “salt”, “[86]” for “[40]”

Structure (SMILES) | half-life at 60° C. [1] | thermal stability compared with AMPPD [1] | chemiluminescence intensity compared with AMPPD [2] | chemiluminescence intensity compared with AMPPD [3]
COC1(c2cccc(OP(=O)(O)O)c2)OOC12C1CC3CC(C1)CC2C3 (stereo not shown) [AMPPD, 3-(2'-spiroadamantan)-4-methoxy-4-(3"-phosphoryloxy)phenyl-1,2-dioxetane disodium salt, reference compound] | 5.5 h |  |  | 
CC(C)OC1(c2cccc(OP(=O)(O)O)c2)OOC1(C(C)C)C(C)C (stereo not shown) [Compound [40], 3-isopropoxy-4,4-diisopropyl-3-(3'-phosphoryloxy)phenyl-1,2-dioxetane disodium salt] | 14.3 h | thermally more stable | higher intensity | 
COC1(c2cccc(OP(=O)(O)O)c2)OOC1(COCC(C)(C)C)C(C)(C)C (stereo not shown) [Compound [86], 3-t-butyl-4-methoxy-3-neopentyloxymethyl-4-(3'-phosphoryloxy)phenyl-1,2-dioxetane disodium salt] | 18.6 h | thermally more stable |  | higher intensity

— patent US5650525A, “1,2-dioxetane derivatives, intermediates for syntheses thereof and methods of producing the intermediates” (priority 1994, dated 1997)
